Source: US20060110710A1, “Endodontic ozone therapy” (priority 2001, published 2006)

Tests used:
[1] = 1H NMR evaluation of the oxidative consumption of salivary biomolecules by ozone; conditions: O3 for 30 seconds; unstimulated human saliva 0.60 ml; 1H NMR 600 MHz
Source text: Ozone is one of nature's most powerful oxidants which accounts for its ability to kill bacteria, spores and viruses. Uniquely, ozone decomposes to a harmless, non-toxic and environmentally safe material (oxygen). In this investigation, a multicomponent evaluation of the oxidative consumption of salivary biomolecules by ozone (O3) has been performed using high resolution proton (^1H) nuclear magnetic resonance (NMR) spectroscopy. The ozone-generating equipment employed in this study was designed by Purezone Ltd. (Ipswich, U.K.). Unstimulated human saliva samples were collected from 8 patients and each of them was divided into two equivalent portions (0.60 ml). The first of these was treated with O3 generated from the above device for a period of 30 seconds; the second group of portions served as controls. Samples were subjected to ^1H NMR analysis at an operating frequency of 600 MHz. […] High field ^1H NMR spectroscopy provides much useful analytical data regarding the fate of O3 in human saliva, information which is of much relevance to its potential therapeutic actions in vivo.

[2] = tested on: Microflora from Primary Root Caries; test: Ozone effect on microflora from primary root caries ex-vivo; type: cell-based; conditions: for Mean ± SE of Total cfu (Log10): after 10 seconds of ozone treatment
Source text: Primary root carious lesions (PRCL) are a major clinical problem. […] An ozone producing generator (Purezone Ltd., Ipswich, U.K.) was used in this ex-vivo study assessing the use of ozone on PRCL. In this study, soft PRCL requiring restoration were used as these are the most severe type of lesion found in humans. 20 freshly extracted teeth with PRCL requiring restoration were used. After plaque removal using a hand held standard fine nylon fiber sterile toothbrush with sterile water as a lubricant to cleanse the surface, each tooth was then isolated using sterile cotton wool rolls and dried using a dry sterile cotton wool roll. […] Each sample was weighed and immediately placed in 1 ml of Fastidious Anaerobe Broth (FAB). […] They were vortexed for 30 seconds to facilitate the extraction of any micro-organisms from the carious dentine and disperse any aggregates. After decimal dilution with FAB, […] of these was spread on Fastidious Anaerobe Agar (LabM, Bury, […].) supplemented with 5% (v/V) horse blood in an anaerobic chamber at 37° C. for four days. The mean±SE number of each colony type was counted and calculated. The procedure of Example 2 was repeated except that ozonized water was applied to the lesion for 20 seconds. […] The aims of these studies were to evaluate the efficiency of ozone on primary root caries and associated micro-organisms (Streptococcus sobrinus; TH 21 Streptococcus mutans; NCTC 10449). […] In study 2, 40 sterile saliva coated glass beads were put into bijoux bottles with 3 mls of Todd Hewitt broth for control and test groups. S. sobrinus and S. mutans were inoculated and incubated anaerobically overnight. Each glass bead was washed with 2 mls of PBS. […] Subsequently, each glass bead in the test and control groups was placed in 3 mls of Todd Hewitt broth with six more sterile glass beads and were vortexed for 30 seconds. After decimal dilutions, […] were spread on blood agar plates supplemented with 5% (V/V) horse blood and placed in an anaerobic chamber at 37° C. for two days. The number of each colony type was counted and calculated. […] This treatment regime is therefore an effective, quick, conservative and simple method to kill micro-organisms in primary root carious lesions.

[3] = tested on: Streptococcus sobrinus; TH 21; test: Ozone on S. sobrinus on saliva coated glass beads; type: cell-based; conditions: 10 seconds of ozone on saliva coated glass beads
Source text: The aims of these studies were to evaluate the efficiency of ozone on primary root caries and associated micro-organisms (Streptococcus sobrinus; TH 21 Streptococcus mutans; NCTC 10449). In study 1, 40 soft primary root carious lesions (PRCLs) from freshly extracted teeth were used and randomly divided into two groups to test the exposure to ozone for either 10 or 20 seconds. There was a significant (p<0.001) difference (Mean±SE) between the control samples for either 10 seconds (log10 5.91±0.15) or 20 seconds (log10 6.18±0.21) and ozone treated samples for either 10 seconds (log10 3.57±0.37) or 20 seconds (log10 3.77±0.42). In study 2, 40 sterile saliva coated glass beads were put into bijoux bottles with 3 mls of Todd Hewitt broth for control and test groups. S. sobrinus and S. mutans were inoculated and incubated anaerobically overnight. Each glass bead was washed with 2 mls of PBS. Immediately, 10 seconds of ozone was applied to the glass beads in the test groups. Subsequently, each glass bead in the test and control groups was placed in 3 mls of Todd Hewitt broth with six more sterile glass beads and were vortexed for 30 seconds. After decimal dilutions, […] were spread on blood agar plates supplemented with 5% (V/V) horse blood and placed in an anaerobic chamber at 37° C. for two days. The number of each colony type was counted and calculated. […]

[4] = tested on: Inflamed human gingivitis; test: Effect of ozone on gum disease; type: in vivo; conditions: after exposure to ozone
Source text: Inflamed human gingivitis is exposed to ozone using the techniques herein described.

[5] = Ozone exposure of bacteria cultures (root canals); type: cell-based, Streptococcus aurous; conditions: exposed to ozone
Lactobacillus salivarius = test: Ozone exposure of bacteria cultures (root canals); type: cell-based; conditions: exposed to ozone
[6] = tested on: Lactobacillus acidophilus; test: Ozone exposure of bacteria cultures (root canals); type: cell-based; conditions: exposed to ozone
Month ulcerations = test: Effect of ozone in the treatment of mouth ulcerations; type: in vivo; conditions: exposed to ozone
[7] = tested on: microorganisms associated with bad breath; test: Effect of ozone in the treatment of bad breath; type: in vivo; conditions: mouth exposed to ozone
Source text: Bad breath is caused, in part, by the retention and subsequent degradation of dead cellular material, by microorganisms, sloughed off continuously by a normal, healthy mouth.

SMILES: O=[O+][O-] [ozone]
- effect of O3 treatment on salivary 3-D-hydroxybutyrate [1]: evidence for the O3-mediated oxidation of salivary 3-D-hydroxybutyrate
- effect of O3 treatment on salivary methionine [1]: oxidation of the volatile sulphur compound precursor methionine to its corresponding sulphoxide
- effect of O3 treatment on salivary polyunsaturated fatty acids [1]: oxidative consumption of salivary polyunsaturated fatty acids
- effect of O3 treatment on salivary pyruvate [1]: oxidative decarboxylation of the salivary electron-donor pyruvate
- percentage of micro-organisms killed ([2]; 10 seconds of ozone treatment): more than 99%
- Mean ± SE of Total cfu (Log10) ([2]; soft PRCL of freshly extracted teeth): 3.57±0.37 Log10
- Mean ± SE of Total cfu (Log10) ([2]; soft PRCL of freshly extracted teeth, listed as Ozone): 3.57 ± 0.37 Log10
- Total cfu, log10, mean±SE ([2]; after 20 seconds of ozone treatment, soft PRCL of freshly extracted teeth): 3.77±0.42 log10
- colony count, log10, Mean±SE [3]: 1.09±0.36 log10
- enzyme levels in extracts from inflamed human gingiva [4]: alleviated and/or reduced
- growth of the bacteria cultures [5]: eliminated or inhibited
- growth of the bacteria cultures (Lactobacillus salivarius): eliminated or inhibited
- growth of the bacteria cultures [6]: eliminated or inhibited
- enzyme levels in the month ulcerations (Month ulcerations): alleviated and/or reduced
- microorganisms in the ulceration (Month ulcerations): eliminated or reduced
- enzyme levels in the month [7]: alleviated and/or reduced
- microorganisms associated with bad breath [7]: eliminated or reduced
